Laboratory results published in ChEMBL document CHEMBL5543059, “Discovery of anti-inflammatory natural flavonoids: Diverse scaffolds and promising leads for drug discovery” (Eur J Med Chem, 2023).
One block for each compound: values may come before it.

Experiments:
HaCaT = experiment: Anti-inflammatory activity in LPS-stimulated human HaCaT cells assessed as reduction of IL-6 expression at 12.5 uM; assay type: functional; set-up: scale not given: the % may be the effect or the level left
Neutrophil [1] = experiment: Inhibition of fMLF/CB-induced human Neutrophil activation assessed as reduction in elastase release using MeO-Suc-Ala-Ala-Pro-Val-pnitroanilide as substrate pre-incubated for 2 mins followed by fMLF/CB-stimulation and measured for 5 mins; assay type: functional, cell-based
[2] = biological target: Transient receptor potential cation channel subfamily V member 1 (Homo sapiens) (UniProt Q8NER1); experiment: Inhibition of TRPV-1 (unknown origin) at 12.5 uM relative to control
RAW264.7 [3] = experiment: Antiinflammatory activity against mouse RAW264.7 cells assessed as inhibition of LPS-stimulated IL-1beta level by ELISA method; assay type: functional, cell-based
RAW264.7 [4] = experiment: Antiinflammatory activity against mouse RAW264.7 cells assessed as inhibition of LPS-stimulated TNF-alpha level by ELISA method; assay type: functional, cell-based
Rattus norvegicus [5] = experiment: Anti-inflammatory activity in LPS-induced Sprague-Dawley rat assessed as reduction in IL-1beta level at 20 mg/kg, po pre-incubated for 1 hr with compound followed by LPS-stimulation measured for 24 hrs by ELISA analysis; assay type: functional; set-up: scale not given: the % may be the effect or the level left; details: time 25 hrs
J774.A1 [6] = experiment: Antiinflammatory activity against mouse J774.A1 cells assessed as inhibition of LPS-stimulated TNF-alpha level by ELISA method; assay type: functional, cell-based; details: Mus musculus, J774.A1; read-out: IC50
RAW264.7 [7] = experiment: Anti-inflammatory activity against mouse RAW264.7 cells assessed as inhibition of IL-1beta level incubated for 18 hrs by ELISA analysis; assay type: functional, cell-based; details: RAW264.7, 18 h
J774.A1 [8] = experiment: Antiinflammatory activity against mouse J774.A1 cells assessed as inhibition of LPS-stimulated IL-1beta level by ELISA method; assay type: functional, cell-based
Rattus norvegicus [9] = experiment: Anti-inflammatory activity in LPS-induced Sprague-Dawley rat assessed as reduction in TNF-alpha level at 20 mg/kg, po pre-incubated for 1 hr with compound followed by LPS-stimulation measured for 24 hrs by ELISA analysis; assay type: functional; set-up: scale not given: the % may be the effect or the level left; details: time 25 hrs
RAW264.7 [10] = experiment: Anti-inflammatory activity against mouse RAW264.7 cells assessed as inhibition of TNF-alpha production incubated for 18 hrs by ELISA analysis; assay type: functional, cell-based; details: RAW264.7, 18 h
RAW264.7 [11] = experiment: Anti-inflammatory activity against mouse RAW264.7 cells assessed as inhibition of LPS-induced NO production pre-treated with compound for 1 hr followed by LPS-stimulation and measured for 1 hr; assay type: functional, cell-based
RAW264.7 [12] = experiment: Anti-inflammatory activity against mouse RAW264.7 cells assessed as inhibition of LPS-induced NO production pre-incubated for 1 hr followed by compound addition and measured after 18 hrs by Griess reagent based analysis; assay type: functional, cell-based
Rattus norvegicus [13] = experiment: Anti-inflammatory activity against carrageenan-induced paw edema in Wistar rat assessed as reduction in paw edema at 100 mg/kg, po measured after 3 hrs relative to control; assay type: functional; set-up: scale not given: the % may be the effect or the level left
Mus musculus [14] = experiment: Anti-inflammatory activity against xylene-induced ear edema Swiss mouse model assessed as inhibition of ear edema at 0.025 ug/ml, po measured after 6 hrs relative to control; assay type: functional; set-up: scale not given: the % may be the effect or the level left; details: dose 0.025 µg/ml
[15] = Anti-inflammatory activity in carrageenan-induced human PBMC cells assessed as inhibition of IL-beta leakage at 10 uM measured for 24 hrs relative to control; assay type: functional; set-up: scale not given: the % may be the effect or the level left
Rattus norvegicus [16] = experiment: Anti-inflammatory activity against carrageenan-induced paw edema in Wistar rat assessed as reduction in paw edema at 100 mg/kg, po measured after 1 hrs relative to control; assay type: functional; set-up: scale not given: the % may be the effect or the level left
Mus musculus [17] = experiment: Anti-inflammatory activity against xylene-induced ear edema Swiss mouse model assessed as inhibition of ear edema at 0.25 ug/ml, po measured after 6 hrs relative to control; assay type: functional; set-up: scale not given: the % may be the effect or the level left; details: dose 0.25 µg/ml
Neutrophil elastase = biological target: T1, Neutrophil elastase (Homo sapiens, UniProt P08246); experiment: Inhibition of human Neutrophil elastase; assay type: cell-based
T1 sequence (P08246 whole entry): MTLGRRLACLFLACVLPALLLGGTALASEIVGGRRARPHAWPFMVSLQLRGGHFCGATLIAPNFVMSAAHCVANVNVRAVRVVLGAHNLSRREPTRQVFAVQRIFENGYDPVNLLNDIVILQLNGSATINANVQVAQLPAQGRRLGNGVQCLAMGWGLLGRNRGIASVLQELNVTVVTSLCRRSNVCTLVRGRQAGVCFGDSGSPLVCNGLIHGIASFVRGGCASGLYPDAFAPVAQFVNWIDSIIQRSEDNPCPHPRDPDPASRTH

Neutrophil [18] = experiment: Inhibition of fMLF/CB-induced human Neutrophil activation assessed as reduction in elastase release at 10 uM relative to control; assay type: functional; set-up: scale not given: the % may be the effect or the level left
BV-2 [19] = experiment: Anti-inflammatory activity against LPS-induced mouse BV-2 cells assessed as inhibition of 5-lipoxygenase level at 25 microg/ml pre-incubated for 30 mins followed by LPS-stimulation and measured after 6 hrs by RT-PCR analysis; assay type: functional; set-up: scale not given: the % may be the effect or the level left; details: dose 25 µg/ml; time 390 min; 6.5 h
BV-2 [20] = experiment: Anti-inflammatory activity against LPS-induced mouse BV-2 cells assessed as reduction in IL-6 production at 10 uM pre-incubated for 30 mins followed by LPS-stimulation and measured after 6 hrs by RT-PCR analysis; assay type: functional; set-up: scale not given: the % may be the effect or the level left; details: time 390 min, 6.5 h
BV-2 [21] = experiment: Anti-inflammatory activity against LPS-induced mouse BV-2 cells assessed as inhibition of COX-2 level at 12.5 microg/ml pre-incubated for 30 mins followed by LPS-stimulation and measured after 6 hrs by RT-PCR analysis; assay type: functional; set-up: scale not given: the % may be the effect or the level left; details: dose 12.5 µg/ml; time 390 min; 6.5 h
RAW264.7 [22] = experiment: Anti-inflammatory activity against mouse RAW264.7 cells assessed as inhibition of LPS-induced NO production; assay type: functional, cell-based
BV-2 [23] = experiment: Anti-inflammatory activity against LPS-induced mouse BV-2 cells assessed as reduction in Interleukin-1beta production at 10 uM pre-incubated for 30 mins followed by LPS-stimulation and measured after 6 hrs by RT-PCR analysis; assay type: functional; set-up: scale not given: the % may be the effect or the level left; details: time 390 min, 6.5 h
Mus musculus [24] = experiment: Analgesic activity against acetic acid-induced BALB/c writhing mouse model assessed as inhibition of writhing at 10 mg/kg, ip pre-incubated for 30 mins followed by acetic acid addition and measured after 15 mins relative to control; assay type: functional; set-up: scale not given: the % may be the effect or the level left; details: time 45 min, 0.75 h
Mus musculus [25] = experiment: Antiinflammatory activity in carrageenan-induced Kunming mouse model of paw edema assessed as paw volume at 1 mg/kg, ip pre-incubated for 1 hr followed by carrageenan administration measured for 60 mins relative to control; assay type: functional; details: time 2 hrs
Neutrophil [26] = experiment: Inhibition of fMLF-induced chemotaxis in human neutrophils pretreated for 45 mins followed by fMLF-stimulation measured for 1 hr by luminescence based analysis; assay type: functional, cell-based
Mus musculus [27] = experiment: Antiinflammatory activity against TPA-induced CD-1 mouse ear edema model assessed as reduction in ear edema at 0.25 mg/kg relative to control; assay type: functional; set-up: scale not given: the % may be the effect or the level left
Mus musculus [28] = experiment: Antiinflammatory activity against TPA-induced CD-1 mouse ear edema model assessed as reduction in ear edema; assay type: functional, organism-based
Rattus norvegicus [29] = experiment: Anti-inflammatory activity against LPS-induced paw edema in Sprague-Dawley rat assessed as inhibition of paw edema; assay type: functional

Transient receptor potential cation channel subfamily V member 1 (Homo sapiens), sequence (Q8NER1 whole entry): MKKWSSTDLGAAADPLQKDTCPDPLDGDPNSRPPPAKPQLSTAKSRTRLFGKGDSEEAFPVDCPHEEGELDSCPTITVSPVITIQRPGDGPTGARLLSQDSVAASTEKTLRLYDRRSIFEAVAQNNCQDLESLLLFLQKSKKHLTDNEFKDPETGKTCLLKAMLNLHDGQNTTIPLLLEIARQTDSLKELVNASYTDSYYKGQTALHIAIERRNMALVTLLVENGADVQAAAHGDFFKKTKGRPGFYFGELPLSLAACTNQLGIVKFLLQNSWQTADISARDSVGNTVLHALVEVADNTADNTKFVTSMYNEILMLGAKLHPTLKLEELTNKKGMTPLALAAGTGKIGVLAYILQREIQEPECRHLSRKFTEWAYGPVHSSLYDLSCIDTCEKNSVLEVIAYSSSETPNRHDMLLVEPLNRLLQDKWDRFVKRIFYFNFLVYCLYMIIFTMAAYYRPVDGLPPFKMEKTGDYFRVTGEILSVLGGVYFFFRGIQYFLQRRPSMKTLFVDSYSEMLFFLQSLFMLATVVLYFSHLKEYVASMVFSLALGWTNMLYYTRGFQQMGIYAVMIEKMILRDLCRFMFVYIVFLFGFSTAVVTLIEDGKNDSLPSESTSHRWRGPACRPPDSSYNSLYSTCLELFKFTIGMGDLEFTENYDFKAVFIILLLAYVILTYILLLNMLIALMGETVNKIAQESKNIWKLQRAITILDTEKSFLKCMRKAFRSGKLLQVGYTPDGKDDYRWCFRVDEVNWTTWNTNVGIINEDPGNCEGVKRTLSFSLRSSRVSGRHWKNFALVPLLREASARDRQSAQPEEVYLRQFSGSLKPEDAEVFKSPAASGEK

Structure (SMILES): CC(C)=CCC/C(C)=C/Cc1c(O)ccc2c1O[C@H](c1ccc(O)cc1)CC2=O
IC50 (RAW264.7 [11]): 8.13 µM

Structure (SMILES): CC(C)=CCC/C(C)=C/Cc1c(C2CC(=O)c3c(cc(O)c(CC=C(C)C)c3O)O2)ccc(O)c1O (stereo unspecified)
IC50 (RAW264.7 [12]): 2.4 µM

Structure (SMILES): O=C1C[C@@H](c2ccc(O)c(O)c2)Oc2cc(O)cc(O)c21 [ERIODICTYOL]
Activity (Mus musculus [27]): 56.3%
IC50 (Mus musculus [28]): 0.72 µM

Structure (SMILES): COc1ccc(-c2cc(=O)c3c(O)c(OC)c(O)cc3o2)cc1OC [EUPATILIN]
ID50 (Rattus norvegicus [29]): 0.28 umol/cm2

The next lines start with results.

IC50 (Neutrophil [1]): ≤ 15.2 µM
inhibition [2]: 33%
Structure (SMILES): COc1cc(O)c2c(=O)cc(-c3ccc(O)c(O)c3)oc2c1
Activity (HaCaT): 52%

IC50 (RAW264.7 [3]): 17.3 µM
IC50 (RAW264.7 [4]): 23.5 µM
IC50 (J774.A1 [6]): 37.5 µM
IC50 (RAW264.7 [7]): 40 µM
IC50 (J774.A1 [8]): 19.6 µM
IC50 (RAW264.7 [10]): < 22 µM
Structure (SMILES): COc1cc(O)c2c(c1)OC(c1ccccc1)CC2=O (stereo unspecified)
Activity (Rattus norvegicus [5]): 53.1%
Activity (Rattus norvegicus [9]): 48.6%

IC50 (Neutrophil elastase): 0.35 µM
Structure (SMILES): COc1ccc(-c2cc(=O)c3c(O)c(OC)c(OC)c(OC)c3o2)cc1OC [5-DEMETHYLNOBILETIN]
Activity (Rattus norvegicus [13]): 47%
Activity (Mus musculus [14]): 79%
Activity [15]: 24.8%
Activity (Rattus norvegicus [16]): 65%
Activity (Mus musculus [17]): 41%
Activity (Neutrophil [18]): 89%

IC50 (RAW264.7 [22]): 12.2 µM
Structure (SMILES): O=c1cc(-c2ccc(O)cc2)oc2cc(O)cc(O)c12 [APIGENIN]
Activity (BV-2 [19]): 88.3%
Activity (BV-2 [20]): 68%
Activity (BV-2 [21]): 89.2%
Activity (BV-2 [23]): 68%

IC50 (Neutrophil [26]): 2.25 µM
Structure (SMILES): O=c1cc(-c2ccccc2)oc2cc(O)cc(O)c12 [CHRYSIN]
Activity (Mus musculus [24]): 56%
Activity (Mus musculus [25]): 25%
